Data from ChEMBL document CHEMBL5537111, “Structure and function of SARS-CoV and SARS-CoV-2 main proteases and their inhibition: A comprehensive review” (Eur J Med Chem, 2023).

Columns and labels:
SARS-CoV-2 [1] = type: functional, organism-based; settings: Severe acute respiratory syndrome coronavirus 2, Huh-7
SARS-CoV-2 [2] = type: functional, organism-based; settings: Severe acute respiratory syndrome coronavirus 2, Huh-7, 72 h
Procathepsin L = Procathepsin L (Homo sapiens, UniProt P07711); assay: Inhibition of cathepsin L (unknown origin)
SARS-CoV-2 [3] = assay: Antiviral activity against SARS-CoV-2 Omicron BA.1 infected in human A549-hACE2-TMPRSS2 cells assessed as reduction in viral replication pre-incubated with compound followed by viral infection measured after 72 hrs by ELISA assay; type: functional, organism-based; settings: Severe acute respiratory syndrome coronavirus 2, Omicron BA.1, A549-hACE2-TMPRSS2
[4] = target: T1, Replicase polyprotein 1ab (Severe acute respiratory syndrome coronavirus 2, UniProt P0DTD1)
SARS-CoV-2 [5] = assay: microbe, parasite or virus in culture; settings: Severe acute respiratory syndrome coronavirus 2, Vero C1008
Replicase polyprotein 1a [6] = target: T2, Replicase polyprotein 1a (Severe acute respiratory syndrome-related coronavirus, UniProt P0C6U8)
[7] = target: T1, Replicase polyprotein 1ab; remark: listed apart in the source
SARS-CoV-2 [8] = type: functional, organism-based; settings: Severe acute respiratory syndrome coronavirus 2, A549-ACE2
[9] = target: T1, Replicase polyprotein 1ab; assay: Binding affinity to SARS-CoV-2 MPro assessed as dissociation constant by FRET analysis
SARS-CoV-2 [10] = type: functional, organism-based; settings: Severe acute respiratory syndrome coronavirus 2, Vero C1008, 120 h
[11] = target: T1, Replicase polyprotein 1ab; remark: listed apart in the source
SARS-CoV-2 [12] = assay: microbe, parasite or virus in culture; settings: Severe acute respiratory syndrome coronavirus 2, Vero C1008; remark: listed apart in the source
SARS-CoV-2 [13] = assay: microbe, parasite or virus in culture; settings: Severe acute respiratory syndrome coronavirus 2, Vero C1008, 72 h
SARS-CoV-2 [14] = type: functional, organism-based; settings: Severe acute respiratory syndrome coronavirus 2, Vero
SARS-CoV-2 [15] = type: functional, organism-based; settings: Severe acute respiratory syndrome coronavirus 2, Calu-3, 48 h
SARS-CoV = assay: microbe, parasite or virus in culture; settings: Severe acute respiratory syndrome-related coronavirus, Vero C1008, 72 h
SARS-CoV-2 [16] = assay: Antiviral activity against SARS-CoV-2 WA1 infected in human A549-hACE2-TMPRSS2 cells assessed as reduction in viral replication pre-incubated with compound followed by viral infection measured after 72 hrs by ELISA assay; type: functional, organism-based; settings: Severe acute respiratory syndrome coronavirus 2, WA1, A549-hACE2-TMPRSS2
SARS-CoV-2 [17] = assay: microbe, parasite or virus in culture; settings: Severe acute respiratory syndrome coronavirus 2, Vero C1008, 72 h; remark: listed apart in the source
A549 = assay: cells; settings: Homo sapiens, A549, 72 h
Replicase polyprotein 1a [18] = target: T2, Replicase polyprotein 1a; remark: listed apart in the source

Sequence of Procathepsin L (P07711 whole entry): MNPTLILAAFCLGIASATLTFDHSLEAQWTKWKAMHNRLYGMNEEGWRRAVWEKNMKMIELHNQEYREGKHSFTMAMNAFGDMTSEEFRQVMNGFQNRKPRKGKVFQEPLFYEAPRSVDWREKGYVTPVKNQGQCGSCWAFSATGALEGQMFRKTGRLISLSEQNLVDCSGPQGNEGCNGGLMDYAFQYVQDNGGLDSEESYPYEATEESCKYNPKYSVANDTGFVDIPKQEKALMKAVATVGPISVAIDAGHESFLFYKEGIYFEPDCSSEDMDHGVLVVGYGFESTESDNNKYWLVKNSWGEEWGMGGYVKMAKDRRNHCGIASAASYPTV

CC(C)(C)NC(=O)N[C@H](C(=O)N1C[C@H]2[C@@H]([C@H]1C(=O)N[C@@H](C[C@@H]1CCNC1=O)C(=O)C(N)=O)C2(C)C)C(C)(C)C
EC50 (SARS-CoV-2 [1]): 0.1 µM
EC50 (SARS-CoV-2 [2]): 0.1 µM

CCOC(=O)/C=C/[C@H](C[C@@H]1CCNC1=O)NC(=O)[C@H](Cc1ccccc1)NC(=O)[C@H](N)Cc1ccccc1
IC50 (Procathepsin L): 0.06 µM
EC50 (SARS-CoV-2 [3]): 0.0082 µM
IC50 [4]: 0.9 µM

C=C(C)C(Cc1c(OC)ccc(C(=O)/C=C/c2ccc(O)cc2)c1O)OO (stereo unspecified)
EC50 (SARS-CoV-2 [5]): 7.1 µM
IC50 [4]: 16 µM
Ki (Replicase polyprotein 1a [6]): 16.1 µM

C[C@@H](OC(C)(C)C)[C@H](NC(=O)OCc1ccccc1)C(=O)N[C@@H](CC1CCCCC1)C(=O)NN(CCC(N)=O)C(=O)C(Cl)Cl
IC50 [7]: 68 µM
EC50 (SARS-CoV-2 [8]): 0.01 µM

CC(C)c1nc(CN(C)C(=O)N[C@@H](CCN2CCOCC2)C(=O)N[C@H](CC[C@H](Cc2ccccc2)NC(=O)OCc2cncs2)Cc2ccccc2)cs1 [COBICISTAT]
Kd [9]: 2.2 µM
IC50 [4]: 6.7 µM
EC50 (SARS-CoV-2 [10]): 2.74 µM

CNC(=O)c1ccc([C@H]2CCCCN2Cc2cccc(C(=O)N(C)C)c2)n1C
IC50 [11]: 0.69 µM
EC50 (SARS-CoV-2 [12]): 8.52 µM

CC1(C)CCC(CN2CCN(c3ccc(C(=O)NS(=O)(=O)c4ccc(NCC5CCOCC5)c([N+](=O)[O-])c4)c(Oc4cnc5[nH]ccc5c4)c3)CC2)=C(c2ccc(Cl)cc2)C1 [VENETOCLAX]
EC50 (SARS-CoV-2 [13]): 1.18 µM

COC(=O)[C@]12CCC(C)(C)C[C@H]1[C@H]1C(=O)C=C3[C@@]4(C)C=C(C#N)C(=O)C(C)(C)[C@@H]4CC[C@@]3(C)[C@]1(C)CC2 [BARDOXOLONE METHYL]
EC50 (SARS-CoV-2 [14]): 0.29 µM
EC50 (SARS-CoV-2 [15]): 0.2 µM
IC50 [4]: 5.81 µM

O=C1C(Cl)=C(NCCN2CCOCC2)C(=O)c2ncccc21
EC50 (SARS-CoV): 77 µM
IC50 [7]: 0.077 µM

C=CC(=O)N(CCC(N)=O)NC(=O)[C@H](CC(C)C)NC(=O)[C@@H](NC(=O)OCc1ccccc1)[C@@H](C)OC(C)(C)C
EC50 (SARS-CoV-2 [3]): 0.7 µM
IC50 [4]: 0.034 µM

COc1cc(Cl)cc2[nH]c(C(=O)N[C@@H](CC(C)C)C(=O)N[C@H](C#N)C[C@@H]3CCCNC3=O)cc12
IC50 [7]: 9.1 µM
EC50 (SARS-CoV-2 [5]): 2.2 µM

O=c1c(O)c(-c2cc(O)c(O)c(O)c2)oc2cc(O)cc(O)c12 [MYRICETIN]
EC50 (SARS-CoV-2 [5]): 8 µM

CCOC(=O)/C=C/[C@H](C[C@@H]1CCNC1=O)NC(=O)[C@@H](CC(=O)[C@@H](NC(=O)c1cc(C)on1)C(C)C)Cc1ccc(F)cc1
EC50 (SARS-CoV-2 [16]): 1.87 µM

O=C(c1cccc(Cn2[se]c3ccccc3c2=O)c1)N1CCOCC1
EC50 (SARS-CoV-2 [14]): 3.74 µM
IC50 [4]: 0.000345 µM

CCOC(=O)/C=C/[C@H](C[C@@H]1CCNC1=O)NC(=O)[C@H](CC(C)C)NC(=O)[C@@H](NC(=O)OCc1ccccc1)[C@@H](C)OC(C)(C)C
IC50 [4]: 151 µM

CC(C)C[C@H](NC(=O)[C@@H](NC(=O)OCc1ccccc1)C(C)C)C(=O)N[C@H](C=O)C[C@@H]1CCNC1=O
EC50 (SARS-CoV-2 [17]): > 0.01 µM

Cc1ccc(NC(=O)c2ccc(CN3CCN(C)CC3)cc2)cc1Nc1nc(-c2cccnc2)cs1 [MASITINIB]
EC50 (A549): 3.2 µM

O=C(NCc1ccc(O)c(F)c1)N1CCC(CN2CCc3ccccc32)CC1
IC50 [11]: 0.73 µM
EC50 (SARS-CoV-2 [12]): 4.98 µM

O=C(Oc1cncc(Cl)c1)c1sccc1Cl
EC50 (SARS-CoV-2 [14]): 23.1 µM

CC(C)C[C@H](NC(=O)OCc1ccccc1)C(=O)N[C@H](C=O)C[C@@H]1CCNC1=O
IC50 (Replicase polyprotein 1a [18]): 0.07 µM
